# Laboratory results reported in patent US20140221427A1, “ISOTOPOLOGUES OF POMALIDOMIDE” (CELGENE CORPORATION, priority 2011, published 2014).
# pEC50, pIC50: −log10 of the molar value. Like-named read-outs stand apart in the source and are kept apart here.
# Columns and labels:
# [1] = system: TNFα; assay: Inhibition of TNFα in LPS-stimulated hPBMC (ELISA); assay type: cell-based; conditions: LPS-stimulated human PBMC, TNFα by ELISA; read-out: IC50s for TNFα
# Experimental: Human peripheral blood mononuclear cells (hPBMC) from normal donors are obtained by Ficoll Hypaque (Pharmacia, Piscataway, N.J., USA) density centrifugation. Cells are cultured in RPMI 1640 (Life Technologies, Grand Island, N.Y., USA) supplemented with 10% AB+human serum (Gemini Bio-products, Woodland, Calif., USA), 2 mM L-glutamine, 100 U/ml penicillin, and 100 μg/ml streptomycin (Life Technologies).
# PBMC (2×10^5 cells) are plated in 96-well flat-bottom Costar tissue culture plates (Corning, N.Y., USA) in triplicate. Cells are stimulated with LPS (from Salmonella abortus equi, Sigma cat. no. L-1887, St. Louis, Mo., USA) at 1 ng/ml final in the absence or presence of compounds. Compounds provided herein are dissolved in DMSO (Sigma) and further dilutions are done in culture medium immediately before use. The final DMSO concentration in all assays can be about 0.25%. Compounds are added to cells 1 hour before LPS stimulation. Cells are then incubated for 18-20 hours at 37° C. in 5% CO2, and supernatants are then collected, diluted with culture medium and assayed for TNFα levels by ELISA (Endogen, Boston, Mass., USA). IC50s are calculated using non-linear regression, sigmoidal dose-response, constraining the top to 100% and bottom to 0%, allowing variable slope (GraphPad Prism v3.02).
# Potencies of racemic, (R)-, and (S)-pomalidomide in inhibiting TNFα were measured using procedures substantially similar to those described in Section 5.4 above.
# [2] = system: IL-2; assay: Production of IL-2 in anti-CD3-stimulated purified T cells (ELISA); assay type: cell-based, human; conditions: T cells from PBMC on anti-CD3 (OKT3) coated plates, IL-2 by ELISA, read-out: EC50s for IL-2
# Experimental: PBMC are depleted of adherent monocytes by placing 1×10^8 PBMC in 10 ml complete medium (RPMI 1640 supplemented with 10% heat-inactivated fetal bovine serum, 2 mM L-glutamine, 100 U/ml penicillin, and 100 μg/ml streptomycin) per 10 cm tissue culture dish, in 37° C., 5% CO2 incubator for 30-60 minutes. The dish is rinsed with medium to remove all non-adherent PBMC. T cells are purified by negative selection using the following antibody (Pharmingen) and Dynabead (Dynal) mixture for every 1×10^8 non-adherent PBMC: 0.3 ml Sheep anti-mouse IgG beads, 15 μl anti-CD16, 15 μl anti-CD33, 15 μl anti-CD56, 0.23 ml anti-CD19 beads, 0.23 ml anti-HLA class II beads, and 56 μl anti-CD14 beads. The cells and bead/antibody mixture is rotated end-over-end for 30-60 minutes at 4° C. Purified T cells are removed from beads using a Dynal magnet. Typical yield is about 50% T cells, 87-95% CD3′ by flow cytometry.
# Tissue culture 96-well flat-bottom plates are coated with anti-CD3 antibody OKT3 at 5 μg/ml in PBS, 100 μl per well, incubated at 37° C. for 3-6 hours, then washed four times with complete medium 100 μl/well just before T cells are added. Compounds are diluted to 20 times of final in a round bottom tissue culture 96-well plate. Final concentrations are about 10 μM to about 0.00064 μM. A 10 mM stock of compounds provided herein is diluted 1:50 in complete for the first 20× dilution of 200 μM in 2% DMSO and serially diluted 1:5 into 2% DMSO. Compound is added at 10 μl per 200 μl culture, to give a final DMSO concentration of 0.1%. Cultures are incubated at 37° C., 5% CO2 for 2-3 days, and supernatants analyzed for IL-2 by ELISA (R&D Systems). […]
# In addition, potencies of racemic, (R)-, and (S)-pomalidomide in promoting the production of IL-2 were measured using procedures substantially similar to those described in Section 5.5 above.
SMILES,pIC50 [1],pEC50 [2],"pEC50 ([2]; Homo sapiens, T-cell)"
Nc1cccc2c1C(=O)N([C@H]1CCC(=O)NC1=O)C2=O [(S)-pomalidomide],8.41,7.91,
"Nc1cccc2c1C(=O)N(C1CCC(=O)NC1=O)C2=O (racemic) [racemic pomalidomide, 4-amino-2-(2,6-dixopiperidin-3-yl)isoindoline-1,3-dione]",7.89,,7.99
Nc1cccc2c1C(=O)N([C@@H]1CCC(=O)NC1=O)C2=O [(R)-pomalidomide],7.03,7.24,
